From article PMC7248809, “Differential Proliferation Effect of the Newly Synthesized Valine, Tyrosine and Tryptophan–Naphthoquinones in Immortal and Tumorigenic Cervical Cell Lines” (Molecules, 2020)

Tests used:
[1] = test system: SiHa cells (HPV-16 positive cervical tumor line); experiment: Cell proliferation (crystal violet), dose-response, SiHa; details: Homo sapiens, 72 h
Experimental: (§1) Immortal and HPV negative cell line HaCaT cells was selected as control for both immortality status and HPV content. […] In order to evaluate the effect of the naphthoquine amino acid derivatives in immortal and tumorigenic cells with HPV positive and negative status we performed a dose-response analysis.
(§2) (A) HaCaT HPV negative cell line cells were treated with 6.25, 12.5, 25, 50, 100 and 200 μM of naphthoquinone amino acid derivatives to assay proliferation rate at 72 h post-treatment. (B) SiHa HPV 16 positive cancer cells were treated with 6.25, 12.5, 25, 50, 100 and 200 μM of naphthoquinone amino acid derivatives to assay proliferation rate at 72 h post-treatment. (C) CaLo HPV 18 positive cancer cells were treated with 6.25, 12.5, 25, 50, 100 and 200 μM of naphthoquinone amino acid derivatives to assay proliferation rate at 72 h post-treatment. […] Cells treated with 0.1% of DMSO were used as Control. * represents statistically significant p < 0.05 value.
(§3) Cell proliferation was quantified by violet crystal dye in 1X phosphate-buffered saline (PBS) (2.7 mM KCl, 1.8 mM KH2PO4, 136 mM NaCl, 10 mM Na2HPO4 pH 7.4). The treated cells were incubated in methanol for 15 min and washed two times with distilled water. Cells were dyed with 0.1% crystal violet and washed three times with water and finally violet crystal was recovered with 10% acid acetic to be analyzed in microplate reader Multiskan GO Spectrophotometer (Thermo Scientific™, Ratastie, Finland).

[2] = test system: HaCaT cells (HPV negative non-tumorigenic immortal keratinocytes); experiment: Cell proliferation (crystal violet), dose-response, HaCaT; details: Homo sapiens, 72 h
Experimental: as §1, §2, §3

[3] = test system: CaLo cells (HPV-18 positive cervical tumor line); experiment: Cell proliferation (crystal violet), dose-response, CaLo; details: 72 h
Experimental: as §1, §2, §3

[4] = Cyclic voltammetry in 0.1 M TBABF4/DMSO; details: for irreversible anodic peak (negative potential region) / irreversible oxidation potential peak (positive potential region): Figure 2, vs Ag/Ag+, 100 mV s^−1; for ipa: anodic peak current density; for ipa / Epa / ipc / Epc / E1/2 / ΔEp / |ipa/ipc|: TBABF4 0.1 M/DMSO, 100 mV/s; for Epa: anodic peak potential of redox reaction; for Epa / Epc: vs Ag/Ag+ pseudo-reference; for ipc: cathodic peak current density; for Epc: cathodic peak potential of redox reaction; for E1/2: half-wave potential, E1/2 = (Epa + Epc)/2, vs Ag/Ag+; for ΔEp: potential peak separation, ΔEp = Epc − Epa; for |ipa/ipc|: ratio of anodic to cathodic peak current (reversibility)
Experimental: Electrochemical studies of naphthoquinone–amino acids (3a–c) and chloride–naphthoquinone–amino acids (4a–c) derivatives were studied by cyclic voltammetry (CV) as previously reported [24]. Briefly, non-aqueous solutions of compounds 3a–c or 4a–c at a concentration of 5 mM were dissolved in dimethyl sulfoxide (DMSO, Sigma–Aldrich, St. Louis, MO, USA) containing 0.1 M tetrabutylammonium tetrafluoroborate (TBABF4, Sigma–Aldrich, St. Louis, MO, USA) as supporting electrolyte. Then, the non-aqueous solutions containing 3a–c or 4a–c were studied by CV in a three-electrode cell using a freshly polished glassy carbon disk electrode (GC) (0.07 cm^2, BASi, West Lafayette, IN, USA) as working electrode and a Pt wire (Alfa-Aesar, Tewksbury, MA, USA) as counter electrode. An Ag/Ag^+ electrode in 0.1 M TBABF4/DMSO was used as pseudo-reference electrode. A potential scan was performed from −2.0 V to 0.75 V vs. Ag/Ag^+ at 100 mV s^−1 in the cathodic direction in order to identify any electron transfer reaction associated to compounds 3a–c or 4a–c using a potentiostat/galvanostat PAR VersaStat 3 (Ametek, Inc. Berwyn, PA, USA). Furthermore, any redox reaction processes of 3a–c or 4a–c were further studied at a scan rate of 10, 25, 50, 100, 200, and 300 mV s^−1. As received TBABF4 and DMSO were used without further purification or drying processes. All the non-aqueous testing solutions were degassed for 30 min with high-purity N2 gas before cyclic voltammetry experiments.

SMILES	IC50 [1] [µM]	IC50 [2] [µM]	IC50 [3] [µM]	irreversible anodic peak (negative potential region) [4] [V]	irreversible oxidation potential peak (positive potential region) [4]	ipa [4] [mA cm^−2]	Epa [4] [V]	ipc [4] [mA cm^−2]	Epc [4] [V]	E1/2 [4] [V]	ΔEp [4] [V]	|ipa/ipc| [4]	melting point [°C]
O=C1C(Cl)=C(NC(Cc2c[nH]c3ccccc23)C(=O)O)C(=O)c2ccccc21 (stereo not shown) [Compound 4c, 2-((3-chloro-1,4-dioxo-1,4-dihydronaphthalen-2-yl)amino)-3-(1H-indol-3-yl)propanoic acid]	3.21	~0.331	2.7	−0.36	0.46 V	0.23	−1.05	−0.27	−1.17	−1.11	0.12	0.85	–
CC(C)C(NC1=CC(=O)c2ccccc2C1=O)C(=O)O (stereo not shown) [Compound 3b, 2-((1,4-dioxo-1,4-dihydronaphthalen-2-yl)amino)-3-methylbutanoic acid]	47.2	55.3	57	−0.2	0.60 V	0.28	−1.16	−0.30	−1.27	−1.21	0.12	0.95	170 to 172
O=C1C(Cl)=C(NC(Cc2ccc(O)cc2)C(=O)O)C(=O)c2ccccc21 (stereo not shown) [Compound 4a, 2-((3-chloro-1,4-dioxo-1,4-dihydronaphthalen-2-yl)amino)-3-(4-hydroxyphenyl)propanoic acid]	6.83	9.88	7.03	−0.33	higher than 0.5 V	0.22	−1.04	−0.24	−1.15	−1.10	0.11	0.92	–
O=C1C=C(NC(Cc2ccc(O)cc2)C(=O)O)C(=O)c2ccccc21 (stereo not shown) [Compound 3a, 2-((1,4-dioxo-1,4-dihydronphthalen-2-yl)amino)-3-(4-hydroxyphenyl) propanoic acid]	41	61.6	81.1	–	higher than 0.5 V	0.28	−1.15	−0.30	−1.27	−1.21	0.13	0.95	214 to 216
CC(C)C(NC1=C(Cl)C(=O)c2ccccc2C1=O)C(=O)O (stereo not shown) [Compound 4b, 2-((3-chloro-1,4-dioxo-1,4-dihydronaphthalen-2-yl)amino)-3-methylbutanoic acid]	11.3	7.97	2.88	−0.36	0.57 V	0.21	−1.05	−0.25	−1.19	−1.12	0.14	0.83	54 to 56
O=C1C=C(NC(Cc2c[nH]c3ccccc23)C(=O)O)C(=O)c2ccccc21 (stereo not shown) [Compound 3c, 2-((1,4-dioxo-1,4-dihidronaphthalen-2-yl)amino)-3-(1H-indol-3-yl)propanoic acid]	28.8	40.8	25.2	–	0.45 V	0.26	−1.19	−0.27	−1.30	−1.24	0.11	0.95	–
